# From patent publication US9221822B2, “Thiazolopyrimidine modulators as immunosuppressive agents” (Katholieke Universiteit Leuven, K.U.Leuven R&D, priority 2009, dated 2015)
# Tested on: Human peripheral blood mononuclear cells (PBMCs) as Responder cells, RPMI 1788 Stimulator cells
# Test: Mixed Lymphocyte Reaction (MLR) test
# Format: cell-based
# Settings: Homo sapiens, RPMI-1788, lowest concentration giving 50% inhibition of the MLR; 6 days coculture, 3H-thymidine incorporation
# How it was run: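 Proliferation was read as cpm after a 1 μCi ^3H-thymidine pulse on day 5 and harvest 18 h later, then expressed as % inhibition relative to an MLR without compound. The 6-day triplicate cocultures combined 0.12×10^6 Ficoll-isolated human PBMCs with 0.045×10^6 mitomycin C-inactivated RPMI 1788 cells in RPMI 1640 with 10% FCS.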
row,Structure (SMILES),IC50 [µM]
1,"Nc1nc(N2CCN(C(=O)c3cccc4ccccc34)CC2)c2nc(-c3ccc(F)cc3)[nH]c2n1 [Example 406, (4-(2-amino-8-(4-fluorophenyl)-9H-purin-6-yl)piperazin-1-yl)(naphthalen-1-yl)methanone]",6.4
2,"COc1ccc(OCC(=O)N2CCN(c3nc(N)nc4sc(-c5cccnc5)nc34)CC2)cc1 [Example 271, 1-(4-(5-amino-2-(pyridin-3-yl)thiazolo[5,4-d]pyrimidin-7-yl)piperazin-1-yl)-2-(4-methoxyphenoxy)ethanone]",0.012
3,"Nc1nc(N2CCN(C(=O)COc3ccc(Br)cc3)CC2)c2cc(-c3ccccc3)sc2n1 [Example 372, 1-(4-(2-amino-6-phenylthieno[2,3-d]pyrimidin-4-yl)piperazin-1-yl)-2-(4-bromophenoxy)ethanone]",0.32
4,"Nc1nc(N2CCN(C(=O)COc3ccccc3)CC2)c2cc(-c3ccccc3)sc2n1 [Example 332, 1-(4-(2-amino-6-phenylthieno[2,3-d]pyrimidin-4-yl)piperazin-1-yl)-2-phenoxyethanone]",0.78
5,"CN(C(=O)CN1CCN(c2nc(N)nc3[nH]c(-c4ccc(F)cc4)nc23)CC1)c1ccccc1 [Example 413, 2-(4-(2-amino-8-(4-fluorophenyl)-9H-purin-6-yl)piperazin-1-yl)-N-methyl-N-phenylacetamide]",> 10
6,"Nc1nc(N2CCN(C(=O)Cc3ccc(Cl)cc3)CC2)c2nc(CCc3ccc(F)cc3)oc2n1 [Example 194, 5-amino-2-[2-(4-fluorophenyl)ethyl]-7-(4-[2-(4-chlorophenyl)acetyl]-piperazin-1-yl)-oxazolo[5,4-d]pyrimidine]",9.04
7,"Cc1cc(Cl)ccc1OCC(=O)N1CCN(c2nc(N)nc3sc(-c4ccc(F)cc4)nc23)CC1 [Example 213, 1-(4-(5-amino-2-(4-fluorophenyl)thiazolo[5,4-d]pyrimidin-7-yl)piperazin-1-yl)-2-(4-chloro-2-methylphenoxy)ethanone]",0.219
8,"O=C(COc1ccc(Cl)cc1)N1CCN(c2ncnc3sc(-c4ccc(F)cc4)cc23)CC1 [Example 312, 2-(4-chlorophenoxy)-1-(4-(6-(4-fluorophenyl)thieno[2,3-d]pyrimidin-4-yl)piperazin-1-yl)ethanone]",6.35
9,"Nc1nc(N2CCN(C(=O)COc3ccc(Cl)cc3)CC2)c2ccsc2n1 [Example 351, 1-(4-(2-aminothieno[2,3-d]pyrimidin-4-yl)piperazin-1-yl)-2-(4-chlorophenoxy)ethanone]",1.23
10,"Nc1nc(N2CCN(CC(=O)NCCc3ccccc3)CC2)c2nc(CCc3ccc(F)cc3)sc2n1 [Example 141, 5-amino-2-[2-(4-fluorophenyl)ethyl]-7-(4-(phenethylcarbamoyl-methyl)piperazin-1-yl)-thiazolo[5,4-d]pyrimidine]",1.41
11,"Nc1nc(N2CCN(C(=O)c3ccc(Cl)cc3)CC2)c2nc(CCc3ccc(F)cc3)oc2n1 [Example 195, 5-amino-2-[2-(4-fluorophenyl)ethyl]-7-(4-[4-chlorobenzoyl]piperazin-1-yl)-oxazolo[5,4-d]pyrimidine]",> 10
12,"Nc1nc(N2CCN(C(=O)Nc3ccc(F)cc3F)CC2)c2nc(-c3ccc(F)cc3)sc2n1 [Example 217, 4-(5-amino-2-(4-fluorophenyl)thiazolo[5,4-d]pyrimidin-7-yl)-N-(2,4-difluorophenyl)piperazine-1-carboxamide]",0.345
13,"Nc1nc(N2CCN(C(=O)COc3ccc(Cl)cc3)CC2)c2nc(C3CCCCC3)oc2n1 [Example 187, 5-amino-2-cyclohexyl-7-[4-(4-chlorophenoxyacetyl)piperazin-1-yl]oxazolo[5,4-d]pyrimidine]",> 10
14,"CCOc1nc(N)nc2sc(-c3ccc(F)cc3)nc12 [Example 30, 7-ethoxy-2-(4-fluorophenyl)thiazolo[5,4-d]pyrimidin-5-amine]",> 10
15,"Nc1nc(N2CCN(S(=O)(=O)Cc3ccccc3)CC2)c2nc(-c3ccc(F)cc3)[nH]c2n1 [Example 405, 6-(4-(benzylsulfonyl)piperazin-1-yl)-8-(4-fluorophenyl)-9H-purin-2-amine]",> 10
16,"CC(C)(Oc1ccc(Cl)cc1)C(=O)N1CCN(c2nc(N)nc3sc(-c4ccc(F)cc4)nc23)CC1 [Example 237, 1-(4-(5-amino-2-(4-fluorophenyl)thiazolo[5,4-d]pyrimidin-7-yl)piperazin-1-yl)-2-(4-chlorophenoxy)-2-methylpropan-1-one]",> 10
17,"Nc1nc(N2CCN(C(=O)COc3ccc(Cl)cc3)CC2)c2nc(-c3ccc(OC(F)(F)F)cc3)[nH]c2n1 [Example 395, 1-(4-(2-amino-8-(4-(trifluoromethoxy)phenyl)-9H-purin-6-yl)piperazin-1-yl)-2-(4-chlorophenoxy)ethanone]",> 10
18,"Nc1nc(N[C@H]2CCN(C(=O)COc3ccc(Cl)cc3)C2)c2nc(CCc3ccc(F)cc3)sc2n1 [Example 147, 5-amino-2-[2-(4-fluorophenyl)ethyl]-7-(1-(4-chlorophenoxyacetyl)pyrrolidin-3-(S)-ylamino)-thiazolo[5,4-d]pyrimidine]",4.52

row,Structure (SMILES),IC50 [µM]
1,"Nc1nc(N2CCN(C(=O)COc3ccc(Cl)cc3)CC2)c2nc(Cc3ccc(F)cc3)sc2n1 [Example 46, 1-(4-(5-amino-2-(4-fluorobenzyl)thiazolo[5,4-d]pyrimidin-7-yl)piperazin-1-yl)-2-(4-chlorophenoxy)ethanone]",0.7
2,"COc1ccc(OCC(=O)N2CCN(c3nc(N)nc4sc(-c5ccc(F)cc5)nc34)CC2)cc1 [Example 234, 1-(4-(5-amino-2-(4-fluorophenyl)thiazolo[5,4-d]pyrimidin-7-yl)piperazin-1-yl)-2-(4-methoxyphenoxy)ethanone]",0.037
3,"COc1ccc(OCC(=O)N2CCN(c3nc(N)nc4sc(CCc5ccc(Br)cc5)nc34)CC2)cc1 [Example 298, 1-(4-(5-amino-2-(4-bromophenethyl)thiazolo[5,4-d]pyrimidin-7-yl)piperazin-1-yl)-2-(4-methoxyphenoxy)ethanone]",1.19
4,"COCCOc1nc(N)nc2sc(-c3ccc(F)cc3)nc12 [Example 29, 2-(4-fluorophenyl)-7-(2-methoxyethoxy)-thiazolo[5,4-d]pyrimidin-5-amine]",> 10
5,"Nc1nc(N2CCN(c3ccc(Cl)cc3)CC2)c2nc(-c3ccc(F)cc3)[nH]c2n1 [Example 414, 6-(4-(4-chlorophenyl)piperazin-1-yl)-8-(4-fluorophenyl)-9H-purin-2-amine]",3.87
6,"Nc1nc(N2CCN(CC(=O)Nc3ccccn3)CC2)c2nc(-c3ccc(F)cc3)[nH]c2n1 [Example 416, 2-(4-(2-amino-8-(4-fluorophenyl)-9H-purin-6-yl)piperazin-1-yl)-N-(pyridin-2-yl)acetamide]",5.76
7,"Nc1nc(N2CCN(C(=O)COc3ccc(Cl)cc3)CC2)c2nc(CCCc3ccc(F)cc3)sc2n1 [Example 290, 1-(4-(5-amino-2-(3-(4-fluorophenyl)propyl)thiazolo[5,4-d]pyrimidin-7-yl)piperazin-1-yl)-2-(4-chlorophenoxy)ethanone]",0.96
8,"Nc1nc(N2CCCN(C(=O)COc3ccc(Cl)cc3)CC2)c2nc(-c3ccc(F)cc3)[nH]c2n1 [Example 421, 1-(4-(2-amino-8-(4-fluorophenyl)-9H-purin-6-yl)-1,4-diazepan-1-yl)-2-(4-chlorophenoxy)ethanone]",3.71
9,"Cc1cccc(N2CCN(c3nc(N)nc4sc(-c5ccc(F)cc5)nc34)CC2)c1 [Example 35, 2-(4-fluorophenyl)-7-(4-m-tolylpiperazin-1-yl)-thiazolo[5,4-d]pyrimidin-5-amine]",> 10
10,"Cc1ccc(CCc2nc3c(N4CCN(C(=O)COc5ccc(Br)cc5)CC4)nc(N)nc3s2)cc1 [Example 258, 1-(4-(5-amino-2-(4-methylphenethyl)thiazolo[5,4-d]pyrimidin-7-yl)piperazin-1-yl)-2-(4-bromophenoxy)ethanone]",0.93
11,"Nc1nc(N2CCN(C(=O)c3ccc(Cl)cc3)CC2)c2nc(-c3ccc(F)cc3)[nH]c2n1 [Example 404, (4-(2-amino-8-(4-fluorophenyl)-9H-purin-6-yl)piperazin-1-yl)(4-chlorophenyl)methanone]",> 10
12,"Nc1nc(N2CCN(CC(=O)N3CCCC3)CC2)c2nc(-c3ccc(F)cc3)[nH]c2n1 [Example 410, 2-(4-(2-amino-8-(4-fluorophenyl)-9H-purin-6-yl)piperazin-1-yl)-1-(pyrrolidin-1-yl)ethanone]",> 10
13,"Nc1nc(N2CCN(CCOc3ccccc3)CC2)c2nc(CCc3ccc(F)cc3)sc2n1 [Example 149, 5-amino-2-[2-(4-fluorophenyl)ethyl]-7-(4-(2-phenoxyethyl)piperazin-1-yl)-thiazolo[5,4-d]pyrimidine]",5.76
14,"Nc1nc(N2CCN(C(=O)COc3ccc(Cl)cc3)CC2)c2nc(CCCCc3ccc(F)cc3)sc2n1 [Example 292, 1-(4-(5-amino-2-(4-(4-fluorophenyl)butyl)thiazolo[5,4-d]pyrimidin-7-yl)piperazin-1-yl)-2-(4-chlorophenoxy)ethanone]",0.92
15,"COc1cccc(C(=O)N2CCN(c3nc(N)nc4[nH]c(-c5ccc(F)cc5)nc34)CC2)c1 [Example 402, (4-(2-amino-8-(4-fluorophenyl)-9H-purin-6-yl)piperazin-1-yl)(3-methoxyphenyl)methanone]",> 10
16,"CC(C)N(C(=O)N1CCN(c2nc(N)nc3sc(-c4ccc(F)cc4)cc23)CC1)C(C)C [Example 347, 4-(2-amino-6-(4-fluorophenyl)thieno[2,3-d]pyrimidin-4-yl)-N,N-diisopropylpiperazine-1-carboxamide]",8.2
17,"COc1ccc(OCC(=O)N2CCN(c3nc(N)nc4sc(CCc5ccc(C)cc5)nc34)CC2)cc1 [Example 259, 1-(4-(5-amino-2-(4-methylphenethyl)thiazolo[5,4-d]pyrimidin-7-yl)piperazin-1-yl)-2-(4-methoxyphenoxy)ethanone]",0.96
